Source: patent publication US11945765B1, “4,4′-naphthalene-1,5-diylbis(diazene-2,1-diyl)bis(2-methylphenol) as an antioxidant compound” (KING FAISAL UNIVERSITY, priority 2023, dated 2024)

Experiment: DPPH radical scavenging antioxidant test
Details: 517 nm; for Inhibition (radical scavenging inhibition): DPPH (0.75 mM), compound 3 μM in ethanol, 30 minutes in the dark
Method: The antioxidant properties of the 4,4′-naphthalene-1,5-diylbis(diazene-2,1-diyl)bis(2-methylphenol) compound were studied by adding 0.2 mL DPPH (0.75 mM)) to 4,4′-naphthalene-1,5-diylbis(diazene-2,1-diyl)bis(2-methylphenol) (III) (3 μM) in ethanol. After 30 minutes of incubation in the dark, the absorbance was read against a blank at 517 nm. Ascorbic acid (vitamin C) was used as standard antioxidants (positive control). A blank sample was prepared by 0.2 ml of DPPH in 3 mL ethanol. A negative control sample was run using ethanol instead of the sample. The radical scavenging inhibition was calculated using the following equation: […]

Row | Compound | Inhibition (radical scavenging inhibition) | antioxidant potential compared to vitamin C (in words) (DPPH in vitro test, vitamin C as positive control)
1 | O=C1O[C@H]([C@@H](O)CO)C(O)=C1O [vit c, Ascorbic acid, reference compound] | 74% | –
2 | Cc1cc(/N=N\c2cccc3c(/N=N/c4ccc(O)c(C)c4)cccc23)ccc1O [Product III, 4,4′-naphthalene-1,5-diylbis(diazene-2,1-diyl)bis(2-methylphenol)] | 52% | high potential as an antioxidant
